In US8895585B2, “Nicotinamide derivative or salt thereof” (FUJIFILM Corporation, priority 2010, dated 2014) one finds IC50 data, which are given here for eleven compounds.

The target in test [1] is T1, glutathione S-transferase (GST)-fused full-length human Syk protein (Homo sapiens, UniProt P43405).
T1 construct: (GST)-fused full-length human Syk protein; GST (glutathione S-transferase); purchased Carna Biosciences
In words: Syk enzyme assay. The conditions noted are these: Syk enzyme assay, Test Example 1; read-out: IC50 of Syk-inhibitory activity. In kind it is biochemical. The essentials:
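IC50 values come from a time-resolved FRET readout (615 and 665 nm) of substrate phosphorylation, measured after an EDTA stop and 1 h antibody binding. The kinase reaction ran 40 min at room temperature with 27 μM ATP and 0.4 μM biotin-peptide, following a 15 min compound preincubation with baculovirus-made GST-full-length human Syk.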

For the next test, the system named is THP-1 cells. In words: TNFα generation assay. In kind it is cell-based, human. The conditions noted are these: Homo sapiens, THP-1, THP-1 cells; Table 22; read-out: IC50 in TNFα generation assay. The essentials: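 Secreted TNFα in supernatant quantified by ELISA or AlphaLISA after 7 h culture on human IgG-coated wells (10 μg/ml coating). Cells were IFN-γ-differentiated THP-1 (10 ng/ml, 2 days), exposed to compound for 30 min at room temperature before plating.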

Bounds are passed on as bounds.

As to `COc1cc(Nc2nc(N[C@H](C3CC3)[C@H](C)N)c(F)cc2C(N)=O)cc(OC)n1` [Example 006-429, 6-(((1R,2S)-2-amino-1-cyclopropylpropyl)amino)-2-((2,6-dimethoxypyridin-4-yl)amino)-5-fluoronicotinamide], the values for the IC50 (in test [1]; with THP-1 cells) were less than 10 nM and 65 to 130 nM, respectively.

As for `COc1cc(Nc2nc(N[C@H](C3CC3)[C@H](C)N)c(F)cc2C(N)=O)ccn1` [Example 006-430, 6-(((1R,2S)-2-amino-1-cyclopropylpropyl)amino)-5-fluoro-2-((2-methoxypyridin-4-yl)amino)nicotinamide], the figures for the IC50 (in test [1]; with THP-1 cells) were less than 10 nM and 65 to 130 nM, respectively.

Regarding `COCCOc1cc(Nc2nc(N[C@H](C3CC3)[C@H](C)N)c(F)cc2C(N)=O)ccn1` [Example 006-431, 6-(((1R,2S)-2-amino-1-cyclopropylpropyl)amino)-5-fluoro-2-((2-(2-methoxyethoxy)pyridin-4-yl)amino)nicotinamide], the IC50 in test [1] is 10 to 50 nM; in the test with THP-1 cells, 65 to 130 nM.

Consider `COc1nccc(Nc2nc(N[C@@H]3CCCC[C@@H]3N)c(F)cc2C(N)=O)c1F` [Example 006-432, 6-(((1R,2S)-2-aminocyclohexyl)amino)-5-fluoro-2-((3-fluoro-2-methoxypyridin-4-yl)amino)nicotinamide], for which the IC50 in test [1] was 10 to 50 nM; in the test on THP-1 cells, 65 to 130 nM.

Take `Cc1cc(Nc2nc(N[C@H](C3CC3)[C@H](C)N)c(F)cc2C(N)=O)cnc1C` [Example 006-434, 6-(((1R,2S)-2-amino-1-cyclopropylpropyl)amino)-2-((5,6-dimethylpyridin-3-yl)amino)-5-fluoronicotinamide]: the IC50 was 50 to 100 nM in test [1] and less than 65 nM with THP-1 cells.

In the case of `Cc1cc(Nc2nc(N[C@H](CC3CC3)[C@H](C)N)c(F)cc2C(N)=O)cnc1C` [Example 006-435, 6-(((2R,3S)-3-amino-1-cyclopropylbutan-2-yl)amino)-2-((5,6-dimethylpyridin-3-yl)amino)-5-fluoronicotinamide], the IC50 in test [1] is less than 10 nM; in the test with THP-1 cells, 65 to 130 nM.

`Cc1nn(C)c2ccc(Nc3nc(N[C@H](CC4CC4)[C@H](C)N)c(F)cc3C(N)=O)cc12` [Example 006-442, 6-(((2R,3S)-3-amino-1-cyclopropylbutan-2-yl)amino)-2-((1,3-dimethyl-1H-indazol-5-yl)amino)-5-fluoronicotinamide]: the IC50 in test [1] is less than 10 nM; in the test with THP-1 cells, less than 65 nM.

For `CCn1nc(C)c2cc(Nc3nc(N[C@H](CC4CC4)[C@H](C)N)c(F)cc3C(N)=O)ccc21` [Example 006-443, 6-(((2R,3S)-3-amino-1-cyclopropylbutan-2-yl)amino)-2-((1-ethyl-3-methyl-1H-indazol-5-yl)amino)-5-fluoronicotinamide], the IC50 in test [1] is less than 10 nM; with THP-1 cells, 65 to 130 nM.

Regarding `COCCn1nc(C)c2cc(Nc3nc(N[C@H](CC4CC4)[C@H](C)N)c(F)cc3C(N)=O)ccc21` [Example 006-444, 6-(((2R,3S)-3-amino-1-cyclopropylbutan-2-yl)amino)-5-fluoro-2-((1-(2-methoxyethyl)-3-methyl-1H-indazol-5-yl)amino)nicotinamide], the results for the IC50 (in test [1]; in the test on THP-1 cells) were 50 to 100 nM and 65 to 130 nM, respectively.

With `Cc1nn(CC(F)F)c2ccc(Nc3nc(N[C@H](CC4CC4)[C@H](C)N)c(F)cc3C(N)=O)cc12` [Example 006-445, 6-(((2R,3S)-3-amino-1-cyclopropylbutan-2-yl)amino)-2-((1-(2,2-difluoroethyl)-3-methyl-1H-indazol-5-yl)amino)-5-fluoronicotinamide], the IC50 was less than 10 nM in test [1] and 65 to 130 nM in the test on THP-1 cells.

Consider `NC(=O)c1cc(F)c(N[C@@H]2CCCC[C@@H]2N)nc1Nc1cnc(-n2cccn2)c(Cl)c1` [Example 006-446, 6-(((1R,2S)-2-aminocyclohexyl)amino)-2-((5-chloro-6-(1H-pyrazol-1-yl)pyridin-3-yl)amino)-5-fluoronicotinamide], for which the IC50 in test [1] is 10 to 50 nM; with THP-1 cells, 130 to 200 nM.
